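Tested at 5 concentrations; 48 h exposure; 96-well plates; endpoints linearly interpolated, else capped at highest concentration. GI50: concentration for 50% inhibition of growth. TGI marks complete inhibition of growth.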
Assays:
Experiment in all cases: NCI tumour cell line growth inhibition, 48 h
[1] = test system: HOP-92 NSCLC
[2] = test system: NCI-H522 lung
[3] = test system: M19-MEL melanoma
[4] = test system: A549 NSCLC
[5] = test system: SNB-75 CNS
[6] = test system: EKVX NSCLC
[7] = test system: RPMI-8226 leukemia
[8] = test system: HT29 colon
[9] = test system: HCT-15 colon
[10] = test system: SF-268 CNS
[11] = test system: SF-295 CNS
[12] = test system: HOP-62 NSCLC
[13] = test system: XF 498 CNS
[14] = test system: NCI/ADR-RES ovarian
[15] = test system: DMS 114 small cell lung
[16] = test system: HOP-18 NSCLC
[17] = test system: P388/ADR leukemia
[18] = test system: LOX IMVI melanoma
[19] = test system: SK-MEL-28 melanoma
[20] = test system: SW-620 colon
[21] = test system: HCT-116 colon
[22] = test system: KM20L2 colon
[23] = test system: NCI-H460 lung
[24] = test system: A498 renal
[25] = test system: SN12C renal
[26] = test system: SK-OV-3 ovarian
[27] = test system: DMS 273 small cell lung
[28] = test system: SN12K1 renal
[29] = test system: OVCAR-8 ovarian
[30] = test system: SNB-78 CNS
[31] = test system: MALME-3M melanoma
[32] = test system: P388 leukemia
[33] = test system: MCF7 breast
[34] = test system: OVCAR-4 ovarian
[35] = test system: DLD-1 colon
[36] = test system: UO-31 renal
[37] = test system: SK-MEL-5 melanoma
[38] = test system: SNB-19 CNS
[39] = test system: OVCAR-3 ovarian
[40] = test system: UACC-257 melanoma
[41] = test system: CAKI-1 renal
[42] = test system: KM12 colon
[43] = test system: HL-60(TB) leukemia
[44] = test system: NCI-H226 lung
[45] = test system: IGROV1 ovarian
[46] = test system: K-562 leukemia
[47] = test system: OVCAR-5 ovarian
[48] = test system: HCC-2998 colon
[49] = test system: RXF 393 renal
[50] = test system: SK-MEL-2 melanoma
[51] = test system: NCI-H23 lung
[52] = test system: UACC-62 melanoma
[53] = test system: SF-539 CNS
[54] = test system: MOLT-4 leukemia
[55] = test system: U251 CNS
[56] = test system: COLO 205 colon
[57] = test system: CCRF-CEM leukemia

## O=C(N[C@@H](c1ccccc1)[C@@H](O)C(=O)OCc1ccc2c(c1)OCO2)c1ccccc1
[1]
  TGI: > 100 µM
[2]
  TGI: > 100 µM
[3]
  TGI: > 100 µM
[4]
  TGI: > 100 µM
[5]
  TGI: > 100 µM
[6]
  TGI: > 100 µM
[7]
  TGI: > 100 µM
[8]
  TGI: > 100 µM
[9]
  TGI: > 100 µM
[10]
  TGI: > 100 µM
[11]
  TGI: > 100 µM
[12]
  TGI: > 100 µM
[13]
  TGI: > 100 µM
[14]
  TGI: > 100 µM
[15]
  TGI: > 100 µM
[16]
  TGI: > 100 µM
[17]
  TGI: > 100 µM
[18]
  TGI: > 100 µM
[19]
  TGI: > 100 µM
[20]
  TGI: > 100 µM
[21]
  TGI: > 100 µM
[22]
  TGI: > 100 µM
[23]
  TGI: > 100 µM
[24]
  TGI: > 100 µM
[25]
  TGI: > 100 µM
[26]
  TGI: > 100 µM
[27]
  TGI: > 100 µM
[28]
  TGI: > 100 µM
[29]
  TGI: > 100 µM
[30]
  TGI: > 100 µM
[31]
  TGI: > 100 µM
[32]
  TGI: > 100 µM
[33]
  TGI: > 100 µM
[34]
  TGI: > 100 µM
[35]
  TGI: > 100 µM
[36]
  TGI: > 100 µM
[37]
  TGI: > 100 µM
[38]
  TGI: > 100 µM
[39]
  TGI: > 100 µM
[40]
  TGI: > 100 µM
[41]
  TGI: > 100 µM
[42]
  TGI: > 100 µM
[43]
  TGI: > 100 µM
[44]
  TGI: > 100 µM
[45]
  TGI: > 100 µM
[46]
  TGI: > 100 µM
[47]
  TGI: > 31.6 µM
[48]
  TGI: > 100 µM
[49]
  TGI: > 100 µM
[50]
  TGI: > 100 µM
[51]
  TGI: > 100 µM
[52]
  TGI: > 100 µM
[53]
  TGI: > 100 µM
[54]
  TGI: > 100 µM
[55]
  TGI: > 100 µM
[56]
  TGI: > 100 µM
[57]
  TGI: > 100 µM

## Cc1c2c(cc3c1[nH]c1ccccc13)C(c1ccc(Cl)cc1)=NCC2
[1]
  TGI: 30.8 µM
[2]
  TGI: 4.45 µM
[3]
  TGI: 88.8 µM
[4]
  TGI: 11.8 µM
[5]
  TGI: 1.42 µM
[6]
  TGI: 35.1 µM
[7]
  TGI: 8.23 µM
[8]
  TGI: 0.687 µM
[9]
  TGI: 9.89 µM
[10]
  TGI: 22 µM
[11]
  TGI: 0.718 µM
[12]
  TGI: 11.2 µM
[13]
  TGI: 0.0949 µM
[14]
  TGI: 1.39 µM
[15]
  TGI: 3.87 µM
[16]
  TGI: 10.6 µM
[17]
  TGI: 18.4 µM
[18]
  TGI: 11.4 µM
[19]
  TGI: 61.2 µM
[20]
  TGI: 19 µM
[21]
  TGI: 12.7 µM
[22]
  TGI: 0.809 µM
[23]
  TGI: 1.33 µM
[24]
  TGI: 10.2 µM
[25]
  TGI: 3.46 µM
[26]
  TGI: 9.23 µM
[27]
  TGI: 2.62 µM
[28]
  TGI: 0.829 µM
[29]
  TGI: 7.14 µM
[30]
  TGI: 27.1 µM
[31]
  TGI: 55.9 µM
[32]
  TGI: 1.47 µM
[33]
  TGI: 7.32 µM
[34]
  TGI: 6.49 µM
[35]
  TGI: 19 µM
[36]
  TGI: 8.99 µM
[37]
  TGI: 3.83 µM
[38]
  TGI: 1.72 µM
[39]
  TGI: 1.78 µM
[40]
  TGI: 43.9 µM
[42]
  TGI: 18.2 µM
[43]
  TGI: 0.717 µM
[44]
  TGI: 6.82 µM
[45]
  TGI: 24.1 µM
[46]
  TGI: 8.87 µM
[47]
  TGI: 33.7 µM
[48]
  TGI: 10.7 µM
[49]
  TGI: 2.45 µM
[50]
  TGI: 7.9 µM
[51]
  TGI: 2.98 µM
[52]
  TGI: 17.6 µM
[53]
  TGI: 2.53 µM
[54]
  TGI: 1.79 µM
[55]
  TGI: 5.7 µM
[56]
  TGI: 13.2 µM
[57]
  TGI: 8.54 µM

## NC1CCCCC1N.Nc1c(N=Nc2ccc(-c3ccc(N=Nc4cc(S(=O)(=O)[O-])c5ccccc5c4N)cc3)cc2)cc(S(=O)(=O)[O-])c2ccccc12.[OH3+].[OH3+].[Pt+4]
[1]
  GI50: 14.2 µM
  TGI: 19.9 µM
[2]
  GI50: 19.6 µM
  TGI: 37.9 µM
[4]
  GI50: > 76.5 µM
  TGI: > 100 µM
[5]
  GI50: > 77.2 µM
  TGI: > 100 µM
[6]
  GI50: 33.8 µM
  TGI: 81.7 µM
[7]
  GI50: 25.2 µM
  TGI: 66.3 µM
[8]
  GI50: 20.1 µM
  TGI: 38.8 µM
[9]
  GI50: > 43.3 µM
  TGI: > 59.6 µM
[10]
  GI50: > 78.6 µM
  TGI: > 100 µM
[11]
  GI50: > 100 µM
  TGI: > 100 µM
[12]
  GI50: > 100 µM
  TGI: > 100 µM
[13]
  GI50: 20.4 µM
  TGI: 42 µM
[14]
  GI50: 20.9 µM
  TGI: 43 µM
[16]
  GI50: 24.5 µM
  TGI: 53.3 µM
[17]
  GI50: 22.6 µM
  TGI: > 62 µM
[18]
  GI50: > 52.2 µM
  TGI: > 80.7 µM
[19]
  GI50: 22 µM
  TGI: 42.2 µM
[20]
  GI50: 25.2 µM
  TGI: 49.4 µM
[21]
  GI50: > 96.1 µM
  TGI: > 100 µM
[22]
  GI50: > 100 µM
  TGI: > 100 µM
[23]
  GI50: 40 µM
  TGI: > 100 µM
[24]
  GI50: > 100 µM
  TGI: > 100 µM
[25]
  GI50: > 56.9 µM
  TGI: > 100 µM
[26]
  GI50: > 100 µM
  TGI: > 100 µM
[27]
  GI50: 59.2 µM
  TGI: > 100 µM
[28]
  GI50: 27.3 µM
  TGI: > 58.2 µM
[29]
  GI50: 26.8 µM
  TGI: > 68.1 µM
[30]
  GI50: > 76.5 µM
  TGI: > 100 µM
[31]
  GI50: 15.4 µM
  TGI: 22.2 µM
[32]
  GI50: 26.3 µM
  TGI: 90.5 µM
[33]
  GI50: 30.9 µM
  TGI: > 100 µM
[34]
  GI50: 35.3 µM
  TGI: > 93 µM
[35]
  GI50: 21.1 µM
  TGI: 43.5 µM
[36]
  GI50: > 100 µM
  TGI: > 100 µM
[37]
  GI50: 33 µM
  TGI: > 83.9 µM
[38]
  GI50: > 100 µM
  TGI: > 100 µM
[39]
  GI50: 42.8 µM
  TGI: > 60.1 µM
[40]
  GI50: 18.1 µM
  TGI: 34.7 µM
[41]
  GI50: > 39.9 µM
  TGI: > 56.9 µM
[42]
  GI50: > 60.5 µM
  TGI: > 100 µM
[43]
  GI50: 21.2 µM
  TGI: 50.9 µM
[44]
  GI50: > 52.6 µM
  TGI: > 100 µM
[45]
  GI50: 48.5 µM
  TGI: > 100 µM
[46]
  GI50: 25 µM
  TGI: 64.2 µM
[47]
  GI50: > 100 µM
  TGI: > 100 µM
[48]
  GI50: > 90.9 µM
  TGI: > 100 µM
[49]
  GI50: 20.3 µM
  TGI: 68.5 µM
[50]
  GI50: 45.6 µM
  TGI: > 100 µM
[51]
  GI50: 67.9 µM
  TGI: > 100 µM
[52]
  GI50: 61.4 µM
  TGI: > 100 µM
[53]
  GI50: > 100 µM
  TGI: > 100 µM
[54]
  GI50: 21.1 µM
  TGI: 54.6 µM
[55]
  GI50: > 100 µM
  TGI: > 100 µM
[56]
  GI50: 17.1 µM
  TGI: 32.9 µM
[57]
  GI50: 29.2 µM
  TGI: > 79.3 µM
